Patent publication US7652020B2, “Compounds for the treatment of inflammatory disorders” (Schering Corporation, priority 2004, dated 2010)

Molecular target: T1, purified catalytic domain of recombinant human TACE (rhTACEc) (Homo sapiens, UniProt P78536, N452Q/S266A)
T1 construct: Residue 215 to 477 with two mutation (S266A and N452Q) and a 6×His tail; 6xHis (C); made in house; host or cells: baculovirus/Hi5 insect cells
Assay: TACE kinetic assay: cleavage of internally quenched peptide substrate SPDL-3, fluorescence
Type: biochemical
Conditions: TACE inhibitory activity, class symbols; read-out: Ki

T1 sequence (P78536 215-477 S266A/N452Q): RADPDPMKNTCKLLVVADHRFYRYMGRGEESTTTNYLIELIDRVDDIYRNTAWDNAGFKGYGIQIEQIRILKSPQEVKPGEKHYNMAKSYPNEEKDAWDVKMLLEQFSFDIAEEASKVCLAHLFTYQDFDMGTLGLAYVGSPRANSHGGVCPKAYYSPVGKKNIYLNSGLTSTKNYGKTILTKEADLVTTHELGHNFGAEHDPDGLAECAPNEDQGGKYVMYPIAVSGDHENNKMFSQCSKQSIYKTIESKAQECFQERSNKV

Row | Ki | SMILES
1 | 100 to 1000 nM | C[C@@H](NC(=O)[C@H](O)[C@@H](O)C(=O)N1CC=C[C@H]1c1cccc(Cl)c1)c1ccc(-n2cccn2)cc1 [Compound 2263]
2 | < 20 nM | C[C@@H](NC(=O)[C@H](O)[C@@H](O)C(=O)N1CC=C[C@@H]1c1cccc(Cl)c1)c1ccc(-n2cccn2)cc1 [Compound 2264]
3 | < 20 nM | C[C@@H](NC(=O)[C@H](O)[C@@H](O)C(=O)N1C[C@H](O)C[C@H]1c1cccc(Cl)c1)c1ccc(-n2cccn2)cc1 [Compound 2265]
4 | < 20 nM | C[C@@H](NC(=O)[C@H](O)[C@@H](O)C(=O)N1CC[C@H](O)[C@H]1c1cccc(Cl)c1)c1ccc(-n2cccn2)cc1 [Compound 2266]
5 | 100 to 1000 nM | C[C@@H](NC(=O)[C@H](O)[C@@H](O)C(=O)N1C[C@H](O)[C@H](O)[C@H]1c1cccc(Cl)c1)c1ccc(-n2cccn2)cc1 [Compound 2267]
6 | < 20 nM | CNc1nc([C@H]2CCCN2C(=O)[C@H](O)[C@@H](O)C(=O)N[C@H](C)c2ccc(-n3cccn3)cc2)c(C)s1 [Compound 2268]
7 | < 20 nM | CNc1nc([C@H]2CCCN2C(=O)[C@H](O)[C@@H](O)C(=O)N[C@H](C)c2ccc(-n3cccn3)cc2)c(C#N)s1 [Compound 2269]
8 | < 20 nM | CCNc1nc([C@H]2C[C@@H](C)CN2C(=O)[C@H](O)[C@@H](O)C(=O)N[C@H](C)c2ccc(-n3cccn3)cc2)cs1 [Compound 2271]
9 | < 20 nM | C[C@@H](NC(=O)[C@H](O)[C@@H](O)C(=O)N1Cc2cccnc2C1)c1ccc(-n2cccn2)c(OCc2ccccc2)c1 [Compound 2304]
10 | < 20 nM | C[C@@H](NC(=O)[C@H](O)[C@@H](O)C(=O)N1Cc2cccnc2C1)c1ccc(-n2cccn2)c(O)c1 [Compound 2305]
11 | > 1000 nM | COc1cccc([C@@H](C)NC(=O)[C@H](O)[C@@H](O)C(=O)N2Cc3cccnc3C2)c1 [Compound 2306]
12 | > 1000 nM | C[C@@H](NC(=O)[C@H](O)[C@@H](O)C(=O)N1Cc2cccnc2C1)c1cccc(O)c1 [Compound 2307]
13 | > 1000 nM | C[C@@H](NC(=O)[C@H](O)[C@@H](O)C(=O)N1Cc2cccnc2C1)c1cccc(OCc2ccccc2)c1 [Compound 2308]
14 | < 20 nM | CCOc1ncccc1-c1ccc(CNC(=O)[C@H](O)[C@@H](O)C(=O)N2CCC[C@@H]2c2cccc(Cl)c2)cc1 [Compound 2334]
15 | 100 to 1000 nM | CCOc1ncccc1-c1ccc(CNC(=O)[C@H](O)[C@@H](O)C(=O)N2CCCC2)cc1 [Compound 2335]
16 | 20 to 100 nM | O=C(NCc1ccc(-c2ccc(F)cc2OCC(F)(F)F)cc1)[C@H](O)[C@@H](O)C(=O)N1CCCC1 [Compound 2337]
17 | < 20 nM | O=C(NCc1ccc(-c2ccccc2OCCC2CCCCC2)cc1)[C@H](O)[C@@H](O)C(=O)N1CCCC1 [Compound 2338]
18 | 20 to 100 nM | O=C(NCc1ccc(-c2ccccc2OCCC2CCCC2)cc1)[C@H](O)[C@@H](O)C(=O)N1CCCC1 [Compound 2339]
19 | 20 to 100 nM | O=C(NCc1ccc(-c2ccccc2OCC2CCCC2)cc1)[C@H](O)[C@@H](O)C(=O)N1CCCC1 [Compound 2340]
20 | 100 to 1000 nM | O=C(NCc1ccc(-c2ccc(F)cc2OCCC2CCCCC2)cc1)[C@H](O)[C@@H](O)C(=O)N1CCCC1 [Compound 2342]
21 | > 1000 nM | O=C(NCc1ccc(-c2ccccc2OCCN2CCOCC2)cc1)[C@H](O)[C@@H](O)C(=O)N1CCCC1 [Compound 2343]
22 | > 1000 nM | COc1nc(CNC(=O)[C@H](O)[C@@H](O)C(=O)N2CCCC2)ccc1-c1ccccc1OC(F)(F)F [Compound 2346]

Row | Ki | SMILES
23 | > 1000 nM | O=C(NCc1ccc(-c2ccccc2OC(F)(F)F)c[n+]1[O-])[C@H](O)[C@@H](O)C(=O)N1CCCC1 [Compound 2347]
24 | 100 to 1000 nM | O=C(NCc1ccc(-c2ccccc2OC(F)(F)F)c[n+]1[O-])[C@H](O)[C@@H](O)C(=O)N1Cc2ccccc2C1 [Compound 2348]
25 | < 20 nM | CCOc1cc(F)ccc1-c1ccc(CNC(=O)[C@H](O)[C@@H](O)C(=O)N2CCCC2)nc1 [Compound 2349]
26 | < 20 nM | O=C(NCc1ccc(-c2ccccc2OC(F)(F)F)cn1)[C@H](O)[C@@H](O)C(=O)N1CCCC1 [Compound 2350]
27 | < 20 nM | O=C(NC[C@H]1CC[C@H](n2c(C(F)(F)F)nc3ccccc32)CC1)[C@H](O)[C@@H](O)C(=O)N1CCC[C@@H]1c1ccccc1 [Compound 2351]
28 | < 20 nM | O=C(NC[C@H]1CC[C@@H](n2c(C(F)(F)F)nc3ccccc32)CC1)[C@H](O)[C@@H](O)C(=O)N1CCC[C@@H]1c1ccccc1 [Compound 2352]
29 | 100 to 1000 nM | C[C@@H](NC(=O)[C@](C)(O)[C@@H](O)C(=O)N1Cc2cccnc2C1)c1ccc(-c2cccc(OCCC3CCCCC3)c2)cc1 [Compound 2353A]
30 | 20 to 100 nM | C[C@@H](NC(=O)[C@H](O)[C@@H](O)C(=O)N1Cc2cccnc2C1)c1ccc(-c2cccc(OCCC3CCCCC3)c2)cc1 [Compound 2353B]
31 | 20 to 100 nM | C[C@@H](NC(=O)[C@](C)(O)[C@@H](O)C(=O)N1Cc2cccnc2C1)c1ccc(-n2cccc2C#N)cc1 [Compound 2354]
32 | < 20 nM | COc1cc([C@@H](C)NC(=O)[C@](C)(O)[C@@H](O)C(=O)N2Cc3cccnc3C2)ccc1-n1cccn1 [Compound 2355]
33 | > 1000 nM | COc1cc([C@@H](C)NC(=O)[C@](C)(O)[C@@H](O)C(=O)N2Cc3cccnc3C2)ccc1Br [Compound 2356]
34 | < 20 nM | C[C@@H](NC(=O)[C@](C)(O)[C@@H](O)C(=O)N1Cc2cccnc2C1)c1ccc(-n2cccn2)c(OCc2ccccc2)c1 [Compound 2357]
35 | 100 to 1000 nM | C[C@@H](NC(=O)[C@](C)(O)[C@@H](O)C(=O)N1Cc2cccnc2C1)c1ccc(-n2cccn2)c(OCC2CC2)c1 [Compound 2358]
36 | < 20 nM | CC#CCOc1cc([C@@H](C)NC(=O)[C@H](O)[C@@H](O)C(=O)N2Cc3cccnc3C2)ccc1-n1cccn1 [Compound 2359]
37 | < 20 nM | CC#CCOc1cc([C@@H](C)NC(=O)[C@](C)(O)[C@@H](O)C(=O)N2Cc3cccnc3C2)ccc1-n1cccn1 [Compound 2360]
38 | 100 to 1000 nM | Cn1c(Cc2ccccc2)cnc1[C@H](O)[C@@H](O)C(=O)NCC1CCN(c2ccc(F)cc2C#N)CC1 [Compound 2365]
39 | > 1000 nM | Cn1c(Br)cnc1[C@H](O)[C@@H](O)C(=O)NCC1CCN(c2ccc(F)cc2C#N)CC1 [Compound 2372]
40 | > 1000 nM | Cn1cnnc1[C@H](O)[C@@H](O)C(=O)NCC1CCN(c2ccc(F)cc2C#N)CC1 [Compound 2376]
41 | > 1000 nM | N#Cc1cc(F)ccc1N1CCC(CNC(=O)[C@H](O)[C@@H](O)c2ccccn2)CC1 [Compound 2382]
42 | > 1000 nM | N#Cc1cc(F)ccc1N1CCC(CNC(=O)[C@H](O)[C@@H](O)c2cnccn2)CC1 [Compound 2387]
43 | > 1000 nM | O=C([C@H](O)[C@@H](O)c1cncc(-c2ccccc2)n1)N1Cc2ccccc2C1 [Compound 2391]
44 | > 1000 nM | O=C([C@H](O)[C@@H](O)c1cncc(N2CCN(c3ccccc3)CC2)n1)N1Cc2ccccc2C1 [Compound 2393]

Row | Ki | SMILES
45 | > 1000 nM | Cn1c([C@H](O)[C@@H](O)C(=O)NCC2CCN(c3ccc(F)cc3C#N)CC2)nc2ccccc21 [Compound 2394]
46 | 100 to 1000 nM | Cn1ccnc1[C@H](O)[C@@](C)(O)C(=O)NCC1CCN(c2ccc(F)cc2C#N)CC1 [Compound 2395]
47 | > 1000 nM | Cn1cc(-c2ccccc2)nc1[C@H](O)[C@@H](O)C(=O)NCC1CCN(c2ccc(F)cc2C#N)CC1 [Compound 2396]
48 | > 1000 nM | Cn1ccnc1[C@H](O)[C@@H](O)C(=O)NCc1ccc(-n2cccn2)cc1 [Compound 2397]
49 | > 1000 nM | O=C(NCc1ccc(-c2ccccc2OC(F)(F)F)cn1)[C@H](O)[C@@H](O)c1ccccn1 [Compound 2398]
50 | > 1000 nM | Cc1nnc([C@H](O)[C@@H](O)C(=O)NCC2CCN(c3ccc(F)cc3C#N)CC2)n1C [Compound 2399]
51 | 100 to 1000 nM | Cc1cnc([C@H](O)[C@@H](O)C(=O)NCC2CCN(c3ccc(F)cc3C#N)CC2)n1C [Compound 2400]
52 | > 1000 nM | Cn1c(-c2ccccc2)cnc1[C@H](O)[C@@H](O)C(=O)NCC1CCN(c2ccc(F)cc2C#N)CC1 [Compound 2402]
53 | > 1000 nM | O=C([C@H](O)[C@@H](O)c1cncc(-c2ccc(-c3ccccc3)cc2)n1)N1Cc2ccccc2C1 [Compound 2403]
54 | 20 to 100 nM | C[C@@H](NC(=O)[C@H](O)[C@@H](O)C(=O)N1CCCCC1)c1ccc(-n2cccn2)cc1 [Compound 2408]
55 | 100 to 1000 nM | C[C@@H]1CCC[C@H](C)N1C(=O)[C@H](O)[C@@H](O)C(=O)N[C@H](C)c1ccc(-n2cccn2)cc1 [Compound 2409]
56 | < 20 nM | C[C@@H](NC(=O)[C@H](O)[C@@H](O)C(=O)N1CCCCC1c1ccccc1)c1ccc(-n2cccn2)cc1 (some centres unmarked) [Compound 2410]
57 | > 1000 nM | C[C@@H](NC(=O)[C@](C)(O)[C@@H](O)C(=O)N1CCCCC1c1ccccc1)c1ccc(-n2cccn2)cc1 (some centres unmarked) [Compound 2411]
58 | 100 to 1000 nM | C[C@@H](NC(=O)[C@H](O)[C@@H](O)C(=O)N1CCCC(C)(C)C1)c1ccc(-n2cccn2)cc1 [Compound 2412]
59 | 20 to 100 nM | C[C@@H](NC(=O)[C@H](O)[C@@H](O)C(=O)N1CCNCC1c1ccccc1)c1ccc(-n2cccn2)cc1 (some centres unmarked) [Compound 2414]
60 | 20 to 100 nM | C[C@@H](NC(=O)[C@H](O)[C@@H](O)C(=O)N1CCCCC1c1cccc(Cl)c1)c1ccc(-n2cccn2)cc1 (some centres unmarked) [Compound 2415]
61 | 20 to 100 nM | C[C@@H](NC(=O)[C@H](O)[C@@H](O)C(=O)N1CCCCC1c1nccs1)c1ccc(-n2cccn2)cc1 (some centres unmarked) [Compound 2416]
62 | 20 to 100 nM | C[C@@H](NC(=O)[C@H](O)[C@@H](O)C(=O)N1CCCCC1c1csc(N)n1)c1ccc(-n2cccn2)cc1 (some centres unmarked) [Compound 2417]
63 | 20 to 100 nM | C[C@@H](NC(=O)[C@H](O)[C@@H](O)C(=O)N1CCCCC1c1ccc(Cl)cc1)c1ccc(-n2cccn2)cc1 (some centres unmarked) [Compound 2418]
64 | 100 to 1000 nM | C[C@@H](NC(=O)[C@H](O)[C@@H](O)C(=O)N1CC2CC1CN2c1ccc(Cl)cc1)c1ccc(-n2cccn2)cc1 (some centres unmarked) [Compound 2419]
65 | 100 to 1000 nM | C[C@@H](NC(=O)[C@H](O)[C@@H](O)C(=O)N1CCN2CCC[C@H]2C1)c1ccc(-n2cccn2)cc1 [Compound 2420]
